Our source for the RP-LC retention time values is the METLIN SMRT retention time set (Domingo-Almenara et al. 2019).

A short description of the data set: gradient 5% acetonitrile 3 min, to 50% in 2 min, to 85% in 15 min, held 3 min, 100 µL/min. Conditions: column: Zorbax Extend-C18 2.1 x 50 mm; eluents: water / acetonitrile, 0.1% formic acid. The essentials: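 In both positive and negative ionization mode, a quadrupole time-of-flight mass spectrometer coupled to HPLC analyzed pure standards run in mixtures of ~100 molecules. The Zorbax Extend-C18 column (2.1 × 50 mm, 1.8 μm) was operated at 100 μL/min with water and acetonitrile, each containing 0.1% formic acid. The dead volume was 40 μL and the dwell volume 900 μL. Retention time came from adduct peaks that were computationally picked and individually inspected by hand.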
The compound `CCOC(=O)c1c(S(=O)(=O)N2CCC(C(=O)Nc3cccc(C)c3)CC2)c(C)n(C)c1C` showed an RP-LC retention time of 875 s.

`CN(CCc1noc(COc2ccccc2F)n1)C(=O)c1ccccc1F`: the RP-LC retention time was found to be 889 s.

`CC(=O)Oc1cc(C(C)C)c(OCCN(C)C)cc1C` showed an RP-LC retention time of 708 s.

The compound `Cc1ccc(-c2nc(-c3ccc4c(c3)nc(C)c(=O)n4C)no2)cc1F` displayed an RP-LC retention time of 1150 s.

`CCOC(=O)c1ccccc1NC(=O)N1CCC(C(=O)NCc2csc(-c3ccccc3)n2)CC1` returned an RP-LC retention time of 993 s.

With `COc1ccc(NC(=O)c2cccn2Cc2noc(C)n2)cc1`, the RP-LC retention time worked out at 776 s.

For `COc1cccc(Cn2cc(C(=O)c3cc(C)ccc3C)c(=O)c3ccc(C)nc32)c1`, the RP-LC retention time worked out at 1060 s.

The compound `Cn1c(C(=O)N2CCCC(C(=O)N3CCN(c4ccccc4)CC3)C2)cc2sccc21` (centres undefined) showed an RP-LC retention time of 892 s.

In turn, `O=S1(=O)N=CN(c2ccc(F)cc2)c2ncccc21` yielded an RP-LC retention time of 738 s.

In the case of `COc1ccc(-c2nc3cc(C)ccn3c2NC(=O)c2cc(Br)ccc2Cl)cc1`, the RP-LC retention time came to 715 s.

The compound `COc1ccc(NS(=O)(=O)c2cc3n(c2)CCCN(C(C)C)C3=O)cc1Cl` had an RP-LC retention time of 773 s.

`Cc1cccc(C)c1NC(=O)CCCSc1nnnn1-c1ccccc1`: the RP-LC retention time was determined as 810 s.

In turn, `Cc1ccc(-c2cc(C(=O)O)c3c(-c4ccc(C)cc4)[nH]nc3n2)cc1` displayed an RP-LC retention time of 856 s.

Take `CCCN1CCN(C(=O)CCc2c(C)c(C(=O)OCC)c(C)n2CC)CC1`: the RP-LC retention time turned out to be 645 s.

In turn, `O=C(Nc1cc(F)ccc1F)Nc1cccn2cnnc12` displayed an RP-LC retention time of 727 s.

`Fc1ccc(Br)cc1-c1nc2ccc(Cl)cn2c1Nc1ccc2c(c1)OCO2` came in with an RP-LC retention time of 945 s.

`CC(C)CNC(=O)C1CCN(S(C)(=O)=O)c2cc(Cl)ccc2O1` (centres undefined) displayed an RP-LC retention time of 809 s.

Take `Cc1cc(=O)n(CC(=O)NCc2ccc(F)c(Cl)c2)c(N)n1`: the RP-LC retention time came out at 863 s.

On to `Cc1ccccc1-c1nnc(CSc2nnc(NC(=O)c3ccccc3Br)s2)o1`, for which the RP-LC retention time was determined as 943 s.

The compound `Cc1ccc(NC(=O)N(C)CCc2noc(COc3ccc(F)cc3)n2)cc1` returned an RP-LC retention time of 926 s.

The compound `O=c1ccc(-c2ccc3c(c2)OCO3)nn1CCc1nc(-c2cccc(Cl)c2)no1` registered an RP-LC retention time of 1010 s.

For the compound `Cc1noc(C)c1S(=O)(=O)N1CCC(C(=O)NCc2csc(-c3ccccc3)n2)CC1`, the RP-LC retention time came to 870 s.

Take `O=C(NC1CCN(c2cc(-c3cccs3)[nH]n2)C1)c1ccc(F)c(Cl)c1` (centres undefined): the RP-LC retention time is 797 s.

Compound `CCCNC(=O)c1ccc2c(=O)n(Cc3ccc(C)cc3)c(N(CC)CC)nc2c1` yielded an RP-LC retention time of 1060 s.

With `Cc1oc(C2CCN(S(=O)(=O)c3cccc(C#N)c3)CC2)nc1C(=O)N1CCOCC1`, the RP-LC retention time came to 734 s.

`CCC(C)NC(=O)C1CCN(S(=O)(=O)c2c(C)nn(-c3ccccc3)c2C)CC1` (centres undefined): the RP-LC retention time turned out to be 830 s.

`Cc1ccc(-n2cc3c(c(C(=O)NC4CC4)c2=O)CC(C)(C)CC3=O)cc1` came in with an RP-LC retention time of 867 s.

For the compound `Cn1cccc1C(=O)NCc1cnoc1-c1ccc(F)cc1`, the RP-LC retention time worked out at 860 s.

`Cc1nc(N2CCOCC2)c2c(C(=O)NCCCc3ccccc3)c(C)oc2n1`: the RP-LC retention time came to 805 s.

In the case of `CCOc1ccccc1NC(=O)N(Cc1cccs1)C1CCN(CC)CC1`, the RP-LC retention time stood at 698 s.

Consider `Cn1c(=O)c(C(=O)NC2CCCC2)nc2cccnc21`, for which the RP-LC retention time is 707 s.

Compound `CNC(=O)C1CN(C(=O)c2ccccc2Cl)CC12CCCC2` (centres undefined) registered an RP-LC retention time of 665 s.

As for `CC(C)N1CCn2c(nc3cc(C(=O)NCc4ccccc4Cl)ccc32)C1=O`, the RP-LC retention time is 719 s.

In the case of `CSc1cccc(NC(=O)Cn2cccc(-c3nc(-c4ccc(Br)cc4)no3)c2=O)c1`, the RP-LC retention time came out at 1050 s.

As to `Cc1cc(C)n2nc(SCC(=O)N(c3ccccc3)c3ccccc3)nc2n1`, the RP-LC retention time worked out at 824 s.

Regarding `CCc1nc(-n2cccc2)sc1C(=O)NC1CCC(C)CC1` (centres undefined), the RP-LC retention time is 1180 s.

`COCc1nncn1C1CCN(S(=O)(=O)c2cc(Cl)ccc2OC)CC1` showed an RP-LC retention time of 736 s.

In turn, `CCc1noc(-c2ccc(SCC(=O)N3CCCCC3)nc2)n1` gave an RP-LC retention time of 875 s.

Turning to `COc1ccccc1-c1noc(Cn2ncn3nc(-c4ccccc4Cl)cc3c2=O)n1`, the RP-LC retention time turned out to be 1040 s.

As for `Cc1c(C(=O)N2CCSCC2)cnn1-c1ncccc1-c1nc(C2CC2)no1`, the RP-LC retention time was determined as 740 s.

`O=C(CSc1nnc2c3sc(N4CCCC4)nc3ncn12)Nc1ccc(Cl)cc1` yielded an RP-LC retention time of 855 s.

Regarding `Cc1ccc(C(=O)N2CCC(CC(=O)NCCc3c[nH]c4ccc(Cl)cc34)CC2)cc1`, the RP-LC retention time came out at 828 s.

`COc1ccc(-c2cc(NS(C)(=O)=O)n(C3CCS(=O)(=O)C3)n2)cc1` (centres undefined): the RP-LC retention time came to 696 s.

Compound `CCN(Cc1cc(Nc2nc(C)cn3c(-c4cn[nH]c4)cnc23)sn1)C(C)(C)CO` yielded an RP-LC retention time of 682 s.

For `O=C(NCc1ccco1)N1CCc2nc(-c3ccc(F)cc3)ncc2C1`, the RP-LC retention time is 813 s.

`CCc1noc(NC(C)=O)c1-c1ccc(C)c(S(=O)(=O)Nc2cccc(C)c2)c1`: the RP-LC retention time was determined as 826 s.

For the compound `Cc1ccc(S(=O)(=O)[C@H]2CS(=O)(=O)C[C@@H]2N2CCN(Cc3ccccc3)CC2)cc1`, the RP-LC retention time stood at 651 s.

The compound `Cc1noc([C@@H]2CN(CCCc3ccccc3)C[C@H]2CO)n1` yielded an RP-LC retention time of 612 s.

In turn, `CCCCOc1ccc(C(=O)Oc2coc(CSc3nncn3C)cc2=O)cc1` came in with an RP-LC retention time of 739 s.

`CCc1ccc(-c2noc(Cn3c(=O)n(-c4ccccc4F)c(=O)c4sccc43)n2)cc1` gave an RP-LC retention time of 1100 s.

On to `CCN1CCCC1CNC(=O)C(C)n1c2ccccc2c2cnn(C)c(=O)c21` (centres undefined), for which the RP-LC retention time came out at 615 s.

Consider `CCN(C(=O)Nc1ccccc1C(=O)OC)c1nc(-c2ccc(C3CCCCC3)cc2)cs1`, for which the RP-LC retention time came to 590 s.

Consider `O=C1CCSc2c1cccc2C(=O)N1CCN(c2ccc(F)cc2)CC1`, for which the RP-LC retention time came out at 882 s.

In the case of `Cc1cc(N2CCN(S(=O)(=O)c3ccc(Cl)c(Cl)c3)CC2)nc(NC2CCCCC2)n1`, the RP-LC retention time turned out to be 922 s.

Take `Cn1nc(C(=O)N2CCCC(c3nnc(C(F)(F)F)o3)C2)ccc1=O` (centres undefined): the RP-LC retention time is 638 s.

Consider `Cc1cccc(-n2c(=O)c3sccc3n(Cc3nc(-c4ccccc4)no3)c2=O)c1`, for which the RP-LC retention time stood at 1010 s.

In turn, `Cc1cccc(-c2nnc(C)c(N3CCOCC3)n2)c1` displayed an RP-LC retention time of 645 s.

`Cc1ccc(N2CCC(NC(=O)NC(C)C)C2=O)cc1C` (centres undefined) had an RP-LC retention time of 740 s.

`COc1ccc(CSc2nccc3c2ccn3CC(=O)NCc2ccc(C)o2)cc1` registered an RP-LC retention time of 725 s.

As to `COc1ccc(OC)c(NC(=O)CCc2c(C)nn(-c3cc(N(C)C)ncn3)c2C)c1`, the RP-LC retention time amounted to 822 s.

In turn, `CCn1nc(C)n2cc(S(=O)(=O)NCc3ccc(Cl)cc3)cc2c1=O` registered an RP-LC retention time of 904 s.

`CC(C)n1cnc(S(=O)(=O)N2CCCC(C(=O)Nc3ccc(F)cc3F)C2)c1` (centres undefined) gave an RP-LC retention time of 792 s.

The compound `CC(=O)OC1CCN(C(=O)c2ccc(C#N)cc2)CC1` registered an RP-LC retention time of 698 s.

As to `Cc1ccc2c(c1)N(Cc1nc(C3CC3)no1)N=C(C(=O)N1CCC(C)CC1)S2(=O)=O`, the RP-LC retention time worked out at 992 s.

On to `CC(C)CCNC(=O)C1CCN(c2nccn3nc(-c4cccs4)cc23)CC1`, for which the RP-LC retention time amounted to 1090 s.

Regarding `Cc1ccc(-n2cc3c(c(C(=O)Nc4ccc(C)cn4)c2=O)CC(C)(C)CC3=O)cc1`, the RP-LC retention time was determined as 961 s.

The compound `CCN1C(=O)C2(CCN(C(=O)c3ccc(OC(C)C)cc3)CC2)c2ccccc21` showed an RP-LC retention time of 1020 s.

Compound `CCc1cccc(N2C(=O)CN(S(C)(=O)=O)CC2(C)C(=O)NCc2ccc(C)cc2)c1` (centres undefined) showed an RP-LC retention time of 905 s.

`COc1ccc(OC)c(NC(=O)Nc2cccc(-c3nccnc3N3CCCC3)c2)c1` displayed an RP-LC retention time of 916 s.

Regarding `CCS(=O)(=O)NCC(c1cccnc1)N1CCN(c2ccccc2F)CC1` (centres undefined), the RP-LC retention time stood at 561 s.

`O=S(=O)(c1cc(-c2nnc(C3CC3)o2)co1)N1CCCC1` returned an RP-LC retention time of 774 s.

For the compound `O=C1CCc2cc(NC(=O)c3cncc(Br)c3)ccc2N1`, the RP-LC retention time came to 649 s.

In the case of `CCOc1ccn(-c2ccc(F)cc2)c(=O)c1C(=O)Nc1ccc(Oc2ccnc(N)c2Cl)c(F)c1`, the RP-LC retention time amounted to 700 s.

Turning to `CCN1C(=O)COc2ccc(-c3noc(-c4ccc(Br)cc4)n3)cc21`, the RP-LC retention time came to 1240 s.

Compound `CN(C)C(=O)c1ccc2c(c1)N(CC(=O)NC1CCCCCC1)C(=O)C1CCCCN21` (centres undefined) registered an RP-LC retention time of 801 s.

In turn, `COC(=O)N1CCN(CCNC(=O)Cc2cccc3ccccc23)CC1` came in with an RP-LC retention time of 574 s.

Take `COc1ccc(-c2nc(NCCCN3CCN(C)CC3)c3ccccc3n2)cc1`: the RP-LC retention time is 828 s.

The compound `O=C(Cn1nc(N2CCSCC2)c2ccccc2c1=O)Nc1ccccc1F` registered an RP-LC retention time of 928 s.

Take `NC(=O)c1c(NC(=O)C2CCCN(C(=O)C3CCCC3)C2)sc2c1CCCC2` (centres undefined): the RP-LC retention time came to 866 s.
